ChEMBL document CHEMBL1125230, “Analysis of the in vitro antitumor activity of novel purine-6-sulfenamide, -sulfinamide, and -sulfonamide nucleosides and certain related compounds using a computer-aided receptor modeling procedure” (1991)

Each compound was assayed on L1210 (assay: In vitro growth inhibition of L1210 tumor cells).
Format: functional, Mus musculus

Row | SMILES | Log 1/ID50
1 | Nc1nc(S(N)(=O)=O)c2ncn(C3O[C@H](CO)[C@@H](O)[C@H]3O)c2n1 (stereo partly specified) | 5.7
2 | NSc1nc(N)nc2c1ncn2[C@H]1C[C@H](O)[C@@H](CO)O1 | 6.06
3 | NC(=O)c1ncnc2c1cnn2C1O[C@H](CO)[C@@H](O)[C@H]1O (stereo partly specified) | 4.38
4 | NSc1nc(N)nc2c1ncn2C1O[C@H](CO)[C@@H](O)[C@H]1O (stereo partly specified) | 6.52
5 | C[C@H]1OC(n2cnc3c(SN)nc(N)nc32)[C@H](O)[C@@H]1O (stereo partly specified) | 6
6 | NS(=O)(=O)c1ncnc2c1ncn2[C@@H]1O[C@H](CO)[C@@H](O)[C@@H]1O | 4
7 | N=C1N=C(S)C2N=CN([C@H]3C[C@H](O)[C@@H](CO)O3)C2=N1 (stereo partly specified) | 7.3
8 | NSc1ncnc2c1cnn2C1O[C@H](CO)[C@@H](O)[C@H]1O (stereo partly specified) | 4.51
9 | NSc1ncnc2c1ncn2[C@H]1C[C@H](O)[C@@H](CO)O1 | 6.66
10 | Nc1cc2c(ncn2C2O[C@H](CO)[C@@H](O)[C@H]2O)c([S+](N)[O-])n1 (mixture of isomers) | 3
11 | Nc1nc([S+](N)[O-])c2ncn(C3O[C@H](CO)[C@@H](O)[C@H]3O)c2n1 (mixture of isomers) | 6
12 | Nc1nc([S+](N)[O-])c2ncn([C@@H]3C[C@@H](O)[C@H](CO)O3)c2n1 (stereo in doubt; 9) | 5.52
13 | N[S+]([O-])c1ncnc2c1ncn2[C@@H]1C[C@@H](O)[C@H](CO)O1 (mixture of isomers) | 4.6
14 | NS(=O)(=O)c1ncnc2c1ncn2[C@H]1C[C@H](O)[C@@H](CO)O1 | 4.56
15 | C[C@H]1OC(n2cnc3c(S(N)(=O)=O)nc(N)nc32)[C@H](O)[C@@H]1O (stereo partly specified) | 5.42
16 | NSc1ncnc2c1ncn2C1O[C@H](CO)[C@@H](O)[C@H]1O (stereo partly specified) | 5.22
17 | C[C@H]1OC(n2cnc3c([S+](N)[O-])nc(N)nc32)[C@H](O)[C@@H]1O (mixture of isomers) | 5.55
18 | Nc1nc([S+](N)[O-])c2ncn([C@@H]3C[C@@H](O)[C@H](CO)O3)c2n1 (mixture of isomers) | 4.45
19 | NSc1ncnc2c([C@@H]3O[C@H](CO)[C@@H](O)[C@H]3O)n[nH]c12 | 4.69
20 | N[S+]([O-])c1ncnc2c1ncn2C1O[C@H](CO)[C@@H](O)[C@H]1O (mixture of isomers) | 4
21 | NS(=O)(=O)c1ncnc2c1ncn2[C@@H]1O[C@H](CO)[C@@H](O)[C@H]1O | 4.92
